Read-outs that look alike come from different tables or passages of the source.
Key:
3T3 cells = assay: MTT cell proliferation assay, 3T3; assay type: cell-based, mouse; settings: Mus musculus, NIH3T3, 3T3 cells, read-out: MTT Assay IC50, 3T3
How it was run: (§1)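 Seeding 5,000-10,000 cells/well, overnight attachment; 8 concs, 1 nM–30 μM. MTT ~4 h, formazan solubilized, OD 490 nm. % inhibition vs negative control, mostly duplicate, mean±SE.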

MS751 cells = assay: MTT cell proliferation assay, MS751; assay type: cell-based, human; settings: Homo sapiens, MS751, MS751 cells, read-out: MTT Assay IC50, MS751
How it was run: as §1

Z138 cells = assay: MTT cell proliferation assay, Z138; assay type: cell-based; settings: Homo sapiens, Z-138, Z138 cells, read-out: MTT Assay IC50, Z138
How it was run: as §1

[1] = approximately 64-72 hours incubation
[2] = eight concentrations 1 nM to 30 μM, incubation approximately 64-72 hours

`Cc1noc(C)c1-c1cc(Cl)c2c(c1)CC(CNC(=O)/C=C/c1cccnn1)O2` (stereo not drawn) [Compound 235, (E)-N-((7-chloro-5-(3,5-dimethylisoxazol-4-yl)-2,3-dihydrobenzofuran-2-yl)methyl)-3-(pyridazin-3-yl)acrylamide] was tested, and the IC50 (3T3 cells; [1]) was 5 to 30 µM, the IC50 (MS751 cells; [1]) was 0.1 to 5 µM and the IC50 (Z138 cells; [1]) was 0.1 to 5 µM.

For `O=C(/C=C/c1cccnn1)NCC1Cc2cc(-c3ccc(C(=O)N4CCOCC4)cc3)cc(Cl)c2O1` (stereo not drawn) [Compound 236, (E)-N-((7-chloro-5-(4-(morpholine-4-carbonyl)phenyl)-2,3-dihydrobenzofuran-2-yl)methyl)-3-(pyridazin-3-yl)acrylamide], the IC50 (3T3 cells; [1]) was 0.1 to 5 µM, the IC50 (MS751 cells; [1]) was 0.1 to 5 µM and the IC50 (Z138 cells; [1]) was 0.1 to 5 µM.

`CN1CCN(C(=O)c2ccc(-c3cc(Cl)c4c(c3)CC(CNC(=O)/C=C/c3ccc(N)nc3)O4)cc2)CC1` (stereo not drawn) [Compound 237, (E)-3-(6-aminopyridin-3-yl)-N-((7-chloro-5-(4-(4-methylpiperazine-1-carbonyl)phenyl)-2,3-dihydrobenzofuran-2-yl)methyl)acrylamide] was tested, and the IC50 (3T3 cells; [1]) was 0.1 to 5 µM, the IC50 (MS751 cells; [1]) was less than 0.1 µM and the IC50 (Z138 cells; [1]) was less than 0.1 µM.

`Cc1cc(-c2cc(Cl)c3c(c2)CC(CNC(=O)/C=C/c2ccc(N)nc2)O3)ccc1C(=O)N1CCOCC1` (stereo not drawn) [Compound 238, (E)-3-(6-aminopyridin-3-yl)-N-((7-chloro-5-(3-methyl-4-(morpholine-4-carbonyl)phenyl)-2,3-dihydrobenzofuran-2-yl)methyl)acrylamide] showed an IC50 (3T3 cells; [1]) of 0.1 to 5 µM, an IC50 (MS751 cells; [1]) of less than 0.1 µM and an IC50 (Z138 cells; [1]) of less than 0.1 µM.

Work on `Nc1ccc(/C=C/C(=O)NCC2Cc3cc(-c4cccc(C(=O)N5CCOCC5)c4)cc(Cl)c3O2)cn1` (stereo not drawn) [Compound 239, (E)-3-(6-aminopyridin-3-yl)-N-((7-chloro-5-(3-(morpholine-4-carbonyl)phenyl)-2,3-dihydrobenzofuran-2-yl)methyl)acrylamide] yielded an IC50 (3T3 cells; [1]) of 0.1 to 5 µM, an IC50 (MS751 cells; [1]) of less than 0.1 µM and an IC50 (Z138 cells; [1]) of less than 0.1 µM.

`C=C(Cc1cccnc1)C(=O)NCC1Cc2cc(-c3ccc(C(C)=O)s3)cc(Cl)c2O1` (stereo not drawn) [Compound 240, N-((5-(5-acetylthiophen-2-yl)-7-chloro-2,3-dihydrobenzofuran-2-yl)methyl)-2-(pyridin-3-ylmethyl)acrylamide] was tested, and the IC50 (3T3 cells; [1]) was greater than 30 µM, the IC50 (MS751 cells; [1]) was 5 to 30 µM and the IC50 (Z138 cells; [1]) was 5 to 30 µM.

With `Nc1ccc(/C=C/C(=O)NCC2Cc3cc(-c4ccc(C(=O)N5CCOCC5)nc4)cc(Cl)c3O2)cn1` (stereo not drawn) [Compound 248, (E)-3-(6-aminopyridin-3-yl)-N-((7-chloro-5-(6-(morpholine-4-carbonyl)pyridin-3-yl)-2,3-dihydrobenzofuran-2-yl)methyl)acrylamide] the IC50 (3T3 cells; [1]) was greater than 30 µM, the IC50 (MS751 cells; [1]) was 0.1 to 5 µM and the IC50 (Z138 cells; [1]) was less than 0.1 µM.

`Nc1ccc(/C=C/C(=O)NCC2Cc3c(-c4ccc(C(=O)N5CCOCC5)cc4)ccc(Cl)c3O2)cn1` (stereo not drawn) [Compound 249, (E)-3-(6-aminopyridin-3-yl)-N-((7-chloro-4-(4-(morpholine-4-carbonyl)phenyl)-2,3-dihydrobenzofuran-2-yl)methyl)acrylamide] gave an IC50 (3T3 cells; [1]) of 0.1 to 5 µM, an IC50 (MS751 cells; [1]) of less than 0.1 µM and an IC50 (Z138 cells; [1]) of less than 0.1 µM.

In the case of `CC(=O)c1ccc(-c2cc(Cl)c3c(c2)CC(CNC(=O)C#Cc2cccnc2)O3)s1` (stereo not drawn) [Compound 251, N-((5-(5-acetylthiophen-2-yl)-7-chloro-2,3-dihydrobenzofuran-2-yl)methyl)-3-(pyridin-3-yl)propiolamide], the IC50 (3T3 cells; [2]) is reported as 5 to 30 µM, the IC50 (MS751 cells; [2]) is reported as 0.1 to 5 µM and the IC50 (Z138 cells; [2]) is reported as 0.1 to 5 µM.

Molecule `CC(=O)c1ccc(-c2cc(Cl)c3c(c2)CC(CNC(=O)/C=C/c2cncnc2)O3)s1` (stereo not drawn) [Compound 254, (E)-N-((5-(5-acetylthiophen-2-yl)-7-chloro-2,3-dihydrobenzofuran-2-yl)methyl)-3-(pyrimidin-5-yl)acrylamide] has an IC50 (3T3 cells; [2]) greater than 30 µM, an IC50 (MS751 cells; [2]) greater than 30 µM and an IC50 (Z138 cells; [2]) greater than 30 µM.

Work on `CC(=O)c1ccc(-c2cc(Cl)c3c(c2)CC(CNC(=O)/C=C/c2cnccn2)O3)s1` (stereo not drawn) [Compound 258, (E)-N-((5-(5-acetylthiophen-2-yl)-7-chloro-2,3-dihydrobenzofuran-2-yl)methyl)-3-(pyrazin-2-yl)acrylamide] yielded an IC50 (3T3 cells; [2]) greater than 30 µM, an IC50 (MS751 cells; [2]) greater than 30 µM and an IC50 (Z138 cells; [2]) greater than 30 µM.

`CC(=O)c1ccc(-c2cc(Cl)c3c(c2)CC(CNC(=O)/C(C)=C/c2cccnc2)O3)s1` (stereo not drawn) [Compound 262, (E)-N-((5-(5-acetylthiophen-2-yl)-7-chloro-2,3-dihydrobenzofuran-2-yl)methyl)-2-methyl-3-(pyridin-3-yl) acrylamide] showed an IC50 (3T3 cells; [2]) greater than 30 µM, an IC50 (MS751 cells; [2]) of 5 to 30 µM and an IC50 (Z138 cells; [2]) of 5 to 30 µM.

In the case of `CC(=O)c1ccc(-c2cc(Cl)c3c(c2)CC(CNC(=O)/C=C/c2cscn2)O3)s1` (stereo not drawn) [Compound 272, (E)-N-((5-(5-Acetylthiophen-2-yl)-7-chloro-2,3-dihydrobenzofuran-2-yl)methyl)-3-(thiazol-4-yl)acrylamide], the IC50 (3T3 cells; [2]) is reported as 5 to 30 µM, the IC50 (MS751 cells; [2]) is reported as greater than 30 µM and the IC50 (Z138 cells; [2]) is reported as greater than 30 µM.

`CC(=O)c1ccc(-c2cc(Cl)c3c(c2)CC(CNC(=O)/C=C/c2ccnnc2)O3)s1` (stereo not drawn) [Compound 273, (E)-N-((5-(5-acetylthiophen-2-yl)-7-chloro-2,3-dihydrobenzofuran-2-yl)methyl)-3-(pyridazin-4-yl)acrylamide] gave an IC50 (3T3 cells; [2]) greater than 30 µM, an IC50 (MS751 cells; [2]) greater than 30 µM and an IC50 (Z138 cells; [2]) of 5 to 30 µM.

Work on `CCn1nccc1/C=C/C(=O)NCC1Cc2cc(-c3ccc(C(C)=O)s3)cc(Cl)c2O1` (stereo not drawn) [Compound 274, (E)-N-((5-(5-acetylthiophen-2-yl)-7-chloro-2,3-dihydrobenzofuran-2-yl)methyl)-3-(1-ethyl-1H-pyrazol-5-yl)acrylamide] yielded an IC50 (3T3 cells; [2]) greater than 30 µM, an IC50 (MS751 cells; [2]) of 5 to 30 µM and an IC50 (Z138 cells; [2]) of 5 to 30 µM.

Molecule `Cc1cc(Cl)c2c(c1)CC(CNC(=O)/C=C/c1cccnc1)O2` (stereo not drawn) [Compound 275, (E)-N-((7-chloro-5-methyl-2,3-dihydrobenzofuran-2-yl)methyl)-3-(pyridin-3-yl)acrylamide] has an IC50 (3T3 cells; [2]) greater than 30 µM, an IC50 (MS751 cells; [2]) of 5 to 30 µM and an IC50 (Z138 cells; [2]) of 5 to 30 µM.

With `CC(=O)c1ccc(-c2cc(Cl)c3c(c2)CC(CNC(=O)/C=C/c2c(Cl)nc4sccn24)O3)s1` (stereo not drawn) [Compound 276, (E)-N-((5-(5-acetylthiophen-2-yl)-7-chloro-2,3-dihydrobenzofuran-2-yl)methyl)-3-(6-chloroimidazo[2,1-b]thiazol-5-yl)acrylamide] the IC50 (3T3 cells; [2]) was greater than 30 µM, the IC50 (MS751 cells; [2]) was greater than 30 µM and the IC50 (Z138 cells; [2]) was greater than 30 µM.

Molecule `CC(=O)c1ccc(-c2cc(Cl)c3c(c2)CC(CNC(=O)/C=C/c2cc(C)on2)O3)s1` (stereo not drawn) [Compound 277, (E)-N-((5-(5-acetylthiophen-2-yl)-7-chloro-2,3-dihydrobenzofuran-2-yl)methyl)-3-(5-methylisoxazol-3-yl)acrylamide] has an IC50 (3T3 cells; [2]) greater than 30 µM, an IC50 (MS751 cells; [2]) of 0.1 to 5 µM and an IC50 (Z138 cells; [2]) greater than 30 µM.

`CC(=O)c1ccc(-c2cc(Cl)c3c(c2)CC(CNC(=O)/C=C/c2ncc[nH]2)O3)s1` (stereo not drawn) [Compound 278, (E)-N-((5-(5-acetylthiophen-2-yl)-7-chloro-2,3-dihydrobenzofuran-2-yl)methyl)-3-(1H-imidazol-2-yl)acrylamide] gave an IC50 (3T3 cells; [2]) greater than 30 µM, an IC50 (MS751 cells; [2]) greater than 30 µM and an IC50 (Z138 cells; [2]) greater than 30 µM.

With `CC(=O)c1ccc(-c2cc(Cl)c3c(c2)CC(CNC(=O)/C=C/c2cccnn2)O3)s1` (stereo not drawn) [Compound 279, (E)-N-((5-(5-acetylthiophen-2-yl)-7-chloro-2,3-dihydrobenzofuran-2-yl)methyl)-3-(pyridazin-3-yl)acrylamide] the IC50 (3T3 cells; [2]) was 0.1 to 5 µM, the IC50 (MS751 cells; [2]) was 0.1 to 5 µM and the IC50 (Z138 cells; [2]) was 0.1 to 5 µM.
